Experimental data reported in ChEMBL document CHEMBL2440080, “Synthesis and biological evaluation of novel acylhydrazone derivatives as potential antitumor agents” (Bioorg Med Chem, 2013).

Columns and labels:
Assay type in all cases: functional
CAKI-1 = assay: Cytotoxicity against human CAKI-1 cells after 48 hrs by sulforhodamine B assay; details: CAKI-1, 48 h
T47D = assay: Cytotoxicity against human T47D cells after 48 hrs by sulforhodamine B assay
BT-549 = assay: Cytotoxicity against human BT549 cells after 48 hrs by sulforhodamine B assay; details: BT-549, 48 h
[1] = Cytotoxicity against human Hs 578T cells after 48 hrs by sulforhodamine B assay
MDA-MB-435 = assay: Cytotoxicity against human MDA-MB-435 cells after 48 hrs by sulforhodamine B assay; details: MDA-MB-435, 48 h
NCI/ADR-RES = assay: Cytotoxicity against human NCI/ADR-RES cells after 48 hrs by sulforhodamine B assay
MDA-MB-231 = assay: Cytotoxicity against human MDA-MB-231 cells after 48 hrs by sulforhodamine B assay; details: MDA-MB-231, 48 h
DU-145 = assay: Cytotoxicity against human DU145 cells after 48 hrs by sulforhodamine B assay; details: DU-145, 48 h
MCF7 = assay: Cytotoxicity against human MCF7 cells after 48 hrs by sulforhodamine B assay; details: MCF7, 48 h
UO-31 = assay: Cytotoxicity against human UO31 cells after 48 hrs by sulforhodamine B assay; details: UO-31, 48 h
PC-3 = assay: Cytotoxicity against human PC3 cells after 48 hrs by sulforhodamine B assay; details: PC-3, 48 h
SN12C = assay: Cytotoxicity against human SN12C cells after 48 hrs by sulforhodamine B assay
TK-10 = assay: Cytotoxicity against human TK10 cells after 48 hrs by sulforhodamine B assay; details: TK-10, 48 h
ACHN = assay: Cytotoxicity against human ACHN cells after 48 hrs by sulforhodamine B assay
RXF 393 = assay: Cytotoxicity against human RXF393 cells after 48 hrs by sulforhodamine B assay; details: RXF 393, 48 h
A498 = assay: Cytotoxicity against human A498 cells after 48 hrs by sulforhodamine B assay; details: A498, 48 h
786-0 = assay: Cytotoxicity against human 786-0 cells after 48 hrs by sulforhodamine B assay; details: 786-0, 48 h
OVCAR-8 = assay: Cytotoxicity against human OVCAR8 cells after 48 hrs by sulforhodamine B assay; details: OVCAR-8, 48 h
SK-OV-3 = assay: Cytotoxicity against human SKOV3 cells after 48 hrs by sulforhodamine B assay; details: SK-OV-3, 48 h
OVCAR-4 = assay: Cytotoxicity against human OVCAR4 cells after 48 hrs by sulforhodamine B assay; details: OVCAR-4, 48 h
OVCAR-5 = assay: Cytotoxicity against human OVCAR5 cells after 48 hrs by sulforhodamine B assay; details: OVCAR-5, 48 h
IGROV-1 = assay: Cytotoxicity against human IGROV1 cells after 48 hrs by sulforhodamine B assay; details: IGROV-1, 48 h
OVCAR-3 = assay: Cytotoxicity against human OVCAR3 cells after 48 hrs by sulforhodamine B assay; details: OVCAR-3, 48 h
UACC-257 = assay: Cytotoxicity against human UACC257 cells after 48 hrs by sulforhodamine B assay; details: UACC-257, 48 h
UACC-62 = assay: Cytotoxicity against human UACC62 cells after 48 hrs by sulforhodamine B assay; details: UACC-62, 48 h
SK-MEL-28 = assay: Cytotoxicity against human SK-MEL-28 cells after 48 hrs by sulforhodamine B assay; details: SK-MEL-28, 48 h
SK-MEL-5 = assay: Cytotoxicity against human SK-MEL-5 cells after 48 hrs by sulforhodamine B assay; details: SK-MEL-5, 48 h
M14 = assay: Cytotoxicity against human M14 cells after 48 hrs by sulforhodamine B assay; details: M14, 48 h
SK-MEL-2 = assay: Cytotoxicity against human SK-MEL-2 cells after 48 hrs by sulforhodamine B assay; details: SK-MEL-2, 48 h
LOX IMVI = assay: Cytotoxicity against human LOXIMVI cells after 48 hrs by sulforhodamine B assay
Malme-3M = assay: Cytotoxicity against human MALME-3M cells after 48 hrs by sulforhodamine B assay
SNB-75 = assay: Cytotoxicity against human SNB75 cells after 48 hrs by sulforhodamine B assay; details: SNB-75, 48 h
U-251 = assay: Cytotoxicity against human U251 cells after 48 hrs by sulforhodamine B assay; details: U-251, 48 h
SF-539 = assay: Cytotoxicity against human SF539 cells after 48 hrs by sulforhodamine B assay; details: SF-539, 48 h
SNB-19 = assay: Cytotoxicity against human SNB19 cells after 48 hrs by sulforhodamine B assay; details: SNB-19, 48 h
SF-295 = assay: Cytotoxicity against human SF295 cells after 48 hrs by sulforhodamine B assay; details: SF-295, 48 h
SW-620 = assay: Cytotoxicity against human SW620 cells after 48 hrs by sulforhodamine B assay; details: SW-620, 48 h
SF-268 = assay: Cytotoxicity against human SF268 cells after 48 hrs by sulforhodamine B assay; details: SF-268, 48 h
HT-29 = assay: Cytotoxicity against human HT-29 cells after 48 hrs by sulforhodamine B assay; details: HT-29, 48 h
KM12 = assay: Cytotoxicity against human KM12 cells after 48 hrs by sulforhodamine B assay; details: KM12, 48 h
HCT-116 = assay: Cytotoxicity against human HCT116 cells after 48 hrs by sulforhodamine B assay; details: HCT-116, 48 h
HCT-15 = assay: Cytotoxicity against human HCT15 cells after 48 hrs by sulforhodamine B assay; details: HCT-15, 48 h
HCC 2998 = assay: Cytotoxicity against human HCC2998 cells after 48 hrs by sulforhodamine B assay; details: HCC 2998, 48 h
NCI-H522 = assay: Cytotoxicity against human NCI-H522 cells after 48 hrs by sulforhodamine B assay; details: NCI-H522, 48 h
COLO 205 = assay: Cytotoxicity against human COLO205 cells after 48 hrs by sulforhodamine B assay; details: COLO 205, 48 h
NCI-H460 = assay: Cytotoxicity against human NCI-H460 cells after 48 hrs by sulforhodamine B assay; details: NCI-H460, 48 h
NCI-H23 = assay: Cytotoxicity against human NCI-H23 cells after 48 hrs by sulforhodamine B assay; details: NCI-H23, 48 h
NCI-H322M = assay: Cytotoxicity against human NCI-H322M cells after 48 hrs by sulforhodamine B assay
HOP-92 = assay: Cytotoxicity against human HOP92 cells after 48 hrs by sulforhodamine B assay; details: HOP-92, 48 h
NCI-H226 = assay: Cytotoxicity against human NCI-H226 cells after 48 hrs by sulforhodamine B assay; details: NCI-H226, 48 h
[2] = Cytotoxicity against human EKVX cells after 48 hrs by sulforhodamine B assay
HOP-62 = assay: Cytotoxicity against human HOP62 cells after 48 hrs by sulforhodamine B assay; details: HOP-62, 48 h
SR = assay: Cytotoxicity against human SR cells after 48 hrs by sulforhodamine B assay
A549 = assay: Cytotoxicity against human A549/ATCC cells after 48 hrs by sulforhodamine B assay; details: A549, 48 h
RPMI-8226 = assay: Cytotoxicity against human RPMI8226 cells after 48 hrs by sulforhodamine B assay; details: RPMI-8226, 48 h
MOLT-4 = assay: Cytotoxicity against human MOLT4 cells after 48 hrs by sulforhodamine B assay; details: MOLT-4, 48 h
CCRF-CEM = assay: Cytotoxicity against human CCRF-CEM cells after 48 hrs by sulforhodamine B assay
HL-60(TB) = assay: Cytotoxicity against human HL-60(TB) cells after 48 hrs by sulforhodamine B assay; details: HL-60, 48 h

## CCN(CC)c1ccc(/C=N/NC(=O)c2cccc(Nc3ccnc(C(F)(F)F)c3)c2)c(O)c1
CAKI-1
  GI50: 200 nM
T47D
  GI50: 631 nM
BT-549
  GI50: 501 nM
[1]
  GI50: 182 nM
MDA-MB-435
  GI50: 339 nM
NCI/ADR-RES
  GI50: 1000 nM
MDA-MB-231
  GI50: 316 nM
DU-145
  GI50: 251 nM
MCF7
  GI50: 245 nM
UO-31
  GI50: 166 nM
PC-3
  GI50: 741 nM
SN12C
  GI50: 309 nM
TK-10
  GI50: 501 nM
ACHN
  GI50: 245 nM
RXF 393
  GI50: 398 nM
A498
  GI50: 479 nM
786-0
  GI50: 240 nM
OVCAR-8
  GI50: 398 nM
SK-OV-3
  GI50: 407 nM
OVCAR-4
  GI50: 158 nM
OVCAR-5
  GI50: 501 nM
IGROV-1
  GI50: 200 nM
OVCAR-3
  GI50: 794 nM
UACC-257
  GI50: 275 nM
UACC-62
  GI50: 251 nM
SK-MEL-28
  GI50: 115 nM
SK-MEL-5
  GI50: 224 nM
M14
  GI50: 229 nM
SK-MEL-2
  GI50: 407 nM
LOX IMVI
  GI50: 178 nM
Malme-3M
  GI50: 339 nM
SNB-75
  GI50: 257 nM
U-251
  GI50: 200 nM
SF-539
  GI50: 263 nM
SNB-19
  GI50: 339 nM
SF-295
  GI50: 324 nM
SW-620
  GI50: 324 nM
SF-268
  GI50: 100 nM
HT-29
  GI50: 339 nM
KM12
  GI50: 398 nM
HCT-116
  GI50: 126 nM
HCT-15
  GI50: 126 nM
HCC 2998
  GI50: 182 nM
NCI-H522
  GI50: 407 nM
COLO 205
  GI50: 282 nM
NCI-H460
  GI50: 200 nM
NCI-H23
  GI50: 646 nM
NCI-H322M
  GI50: 200 nM
HOP-92
  GI50: 1000 nM
NCI-H226
  GI50: 372 nM
[2]
  GI50: 224 nM
HOP-62
  GI50: 251 nM
SR
  GI50: 200 nM
A549
  GI50: 389 nM
RPMI-8226
  GI50: 158 nM
MOLT-4
  GI50: 195 nM
CCRF-CEM
  GI50: 141 nM
HL-60(TB)
  GI50: 316 nM
